Experimental findings from patent publication US20060234934A1, “Composition and Method for Selective Cytostasis” (priority 2005, published 2006) are described below.

Assay [1] has as its system ALL line MOLT-4 (CRL1582). As to the kind of experiment: 3[H]thymidine uptake in leukemic cell line MOLT-4. The format is cell-based, human. The note with it: 50 nG/mL. As for the experimental part:
For example, the ALL line MOLT-4 (now denoted CRL1582 by the ATCC) was used for testing a representative cytostatic peptide for its effect on leukemic cells. The testing method described by Kikuwa, et al (1986), which is hereby incorporated herein by reference. In brief, the cells were maintained as a suspension in RPMI 1640 (Gibco) and 10% FCS, 100 u. penicillin G/mL and 100 micrograms streptomycin/mL with 2 mM L-glutamine.
Representative non-toxic cytostatic peptides were tested in still other cancer cell lines.

The subject of assay [2] is Malignant melanoma A375 cells. As to the kind of experiment: 3[H]-thymidine incorporation in A375 cell cultures. The format is cell-based. As for the experimental part:
Each fraction was reconstituted in 110 μl of Dulbecco's modified Eagle's medium (DMEM) with fetal calf serum (FCS) 5 vol. %, 100 I.U. penicillin, 100 μg streptomycin and 2 nmole glutamine.
Malignant melanoma A375 cells (obtained from the American Type Culture Collection, Rockville, Md.) were counted in a counter (obtained from Coulter Diagnostics, Hialeah, Fla.), and about 4,000 cells were seeded into each well of a 96 well microtiter plate (obtained from Fisher Scientific, Springfield, N.J.) with 200 I.U. penicillin, 200 µg streptomycin and DMEM containing FCS 5 vol. %, 2 nmole glutamine, and […] HEPES (hydroxyethylpiperazine-ethanesulfonic acid buffer) as needed to give a final well volume of […]. […]
The cell cultures were terminated and harvested with a cell harvester (obtained from Flow Laboratories, McLean, Va., under the designation Titertek®), removing the contents of each microtiter plate well onto glass fiber filter paper. […] The strips were placed in scintillation vials and counted in 2 ml scintillation solution (obtained from Fisher Scientific, Springfield, N.J., under the designation Scintiverse®) using a scintillation counter (Model No. LS 100 C. obtained from Beckman Instruments, Somerset, N.J.) to determine the uptake of ^3[H]-thymidine into newly synthesized DNA.
(In general: Uptake of a labelled nucleoside into DNA is a usual measure of proliferation.)

Consider “serine-glutamine-cysteine-glutamic acid-glutamine-glutamic acid-glycine-glycine-phenalalanine-cysteine-arginine-phenylalanine-leucine-leucine-cysteine-proline-serine-arginine-threonine-serine-aspartic acid-isoleucine-glysine-lysine-leucine-glycine-cysteine-glutamic acid-proline-leucine-tryptophan-lysine-cysteine-cysteine-lysine-arginine-tryptophan-glycine-glycine [peak Q]”, for which, in assay [1], the “less 3[H]thymidine uptake than controls” value is reported as 90-95% and the “visual appearance of cells” value was “altered “rounded” visual appearance”. For the same substance, the “less 3[H]-thymidine uptake than controls” value in assay [2] (HPLC fraction) is reported as “about 50%”. Besides, the “amount sufficient to arrest the proliferations of at least about 100,000 melanoma cells” value in assay [2] (melanoma cells) is recorded as “about 50 ng”.
